System: patients with NSCLC
Experiment: POPLAR phase II trial: atezolizumab vs docetaxel, efficacy by PD-L1, CXCL9, IFNG expression level
Format: in vivo, human
Procedure: An RNA-based molecular assay was used to evaluate the association between clinical response to treatment with atezolizumab (MPDL3280A), an anti-PD-L1 antibody, and expression levels of PD-L1, CXCL9, and IFNG in individuals with NSCLC enrolled in a phase II clinical trial in which atezolizumab was administered as a monotherapy.
The POPLAR (Clinical Trial ID No.: NCT01903993) patient population evaluated for PD-L1, CXCL9, and IFNG expression levels consisted of 215 patients. Patients were eligible for enrollment in the POPLAR study if they had locally advanced or metastatic (e.g., stage IIIB, stage IV, or recurrent) NSCLC; disease progression during or following treatment with a prior platinum-containing regimen for locally advanced, unresectable/inoperable, or metastatic NSCLC, or disease recurrence within 6 months of treatment with a platinum-based adjuvant/neoadjuvant regimen; measurable disease, as defined by RECIST v1.1; and an ECOG performance status of 0 or 1. Participants were randomized to receive either atezolizumab at a dose of 1200 mg intravenously every three weeks or docetaxel 75 mg per square meter (mg/m^2) intravenously every three weeks. Treatment with atezolizumab could be continued as long as participants were experiencing clinical benefit, i.e., in the absence of unacceptable toxicity or symptomatic deterioration attributed to disease progression.
To evaluate whether PD-L1, CXCL9, and IFNG gene expression status was associated with patient response to atezolizumab (MPDL3280A) treatment, the gene expression level of PD-L1, CXCL9, and IFNG was assessed in pre-treatment, FFPE tumor samples obtained from each patient. RNA was isolated from the FFPE tumor sections and PD-L1, CXCL9, and IFNG gene expression was measured using PCR-based methodology (Fluidigm). The expression level, expressed as the cycle threshold (Ct) for each of PD-L1, CXCL9, and IFNG was normalized to the expression level of a housekeeping gene (e.g., TMEM55B). The normalized expression value, dCt, where dCt(target gene)=Ct(control gene)−Ct(target gene) for each of PD-L1, CXCL9, and IFNG, was then averaged to obtain a single numerical averaged dCt value for the aggregate expression level of PD-L1, CXCL9, and IFNG.
Tumor specimens obtained from the patients were categorized into different high or low expression level subgroups based on the immune-score expression level of PD-L1, CXCL9, and IFNG relative to a cut-off value for a given percentile (25th, 50th, or 75th percentile) of the population. The 25th percentile was defined by the immune-score expression levels of PD-L1, CXCL9, and IFNG greater than or equal to 25% of all immune-score expression levels of PD-L1, CXCL9, and IFNG in the population analyzed. The 50th percentile was defined by the immune-score expression levels of PD-L1, CXCL9, and IFNG greater than or equal to 50% of all immune-score expression levels of PD-L1, CXCL9, and IFNG in the population analyzed. The 75th percentile was defined by the immune-score expression levels of PD-L1, CXCL9, and IFNG greater than or equal to 75% of all immune-score expression levels of PD-L1, CXCL9, and IFNG in the population analyzed. […]
The OS, PFS, and ORR endpoints from the POPLAR clinical trial were evaluated against the PD-L1, CXCL9, and IFNG expression level cut-offs defined herein (e.g., the 25%, 50%, and 75% expression level quartiles). […]

Compound: CC(=O)O[C@@]12CO[C@@H]1C[C@H](O)[C@@]1(C)C(=O)[C@H](O)C3=C(C)[C@@H](OC(=O)[C@H](O)[C@@H](NC(=O)OC(C)(C)C)c4ccccc4)C[C@@](O)([C@@H](OC(=O)c4ccccc4)[C@H]21)C3(C)C [docetaxel]
- ORR (BEP (n = 113 vs 112)): 8%
- ORR (ITT (n = 144 vs 143)): 15% vs 15%
- ORR (PD-L1, CXCL9, IFNG expression level percentile ≥25%): 13%
- ORR (PD-L1, CXCL9, IFNG expression level percentile ≥50% (median)): 15%
- ORR (PD-L1, CXCL9, IFNG expression level percentile ≥75%): 13%
